Assay results: US12692461B2, “Composite form of tetraacetylenediamine” (ONE1STAR SOLUTIONS LIMITED, priority 2020, dated 2026)
≈ marks a conversion by molar mass, not a printed value. Like-named read-outs stand apart in the source and are kept apart here.

Columns and labels:
[1] = Example 4: performance and water miscibility in presence of sodium percarbonate, undissolved TAED at T=0 and T=6 months; type: physicochemical
Method: The TAED:Sodium percarbonate ratio used for the study was 1:2.5 w/w. […] This 100 mL solution was either used as it was or it was further diluted to with 900 mL water to make a 1 L sample.

[2] = cited from earlier work
[3] = Example 3: performance and water miscibility in presence of sodium percarbonate, weight of remaining material
Method: The experiment was carried out to check the performance and water miscibility of TAED in presence of sodium percarbonate. 1 gram of TAED with 2.5 gram of sodium percarbonate was added 1 litre water and stirred at 500 rpm using overhead stirrer. In Experiment set up the amount of water used for the study was 1 litre.

- Undissolved TAED ([1]; 1 g TAED, 1 L, 1 min, T = 6 months (40° C., 75% relative humidity)): 90 mg
- Undissolved TAED ([1]; 1 g TAED, 1 L, 4 min, T = 0): 60 mg
- Undissolved TAED ([1]; 1 g TAED, 1 L, 4 min, T = 6 months (40° C., 75% relative humidity)): 60 mg
- Undissolved TAED ([1]; 1 g TAED, 100 mL diluted to 1 L, 1 min, T = 0): 90 mg
- Undissolved TAED ([1]; 1 g TAED, 100 mL water, stirring 1 min, T = 6 months (40° C., 75% relative humidity)): 150 mg
- Undissolved TAED ([1]; 1 g TAED, 100 mL water, stirring 4 min, T = 0): 100 mg
- Undissolved TAED ([1]; 1 g TAED, 100 mL water, stirring 4 min, T = 6 months (40° C., 75% relative humidity)): 100 mg
- Undissolved TAED ([1]; 1 g TAED, sodium percarbonate 1:2.5 w/w, 100 mL water, stirring 1 min, T = 0): 150 mg
- Undissolved TAED ([1]; 3 gram TAED, 1 litre, stirring 1 min, T = 0): 1.8 gram
- Undissolved TAED ([1]; 3 gram TAED, 1 litre, stirring 1 min, T = 6 month): 1.8 gram
- Undissolved TAED ([1]; 3 gram TAED, 1 litre, stirring 4 min, T = 0): 1.2 gram
- Undissolved TAED ([1]; 3 gram TAED, 1 litre, stirring 4 min, T = 6 month): 1.2 gram
- Undissolved TAED ([1]; 3 gram TAED, 100 ml water, stirring 1 min, T = 0): 2 gram
- Undissolved TAED ([1]; 3 gram TAED, 100 ml water, stirring 1 min, T = 6 month): 2 gram
- Undissolved TAED ([1]; 3 gram TAED, 100 ml water, stirring 4 min, T = 0): 1.8 gram
- Undissolved TAED ([1]; 3 gram TAED, 100 ml water, stirring 4 min, T = 6 month): 1.8 gram
- amount remained after 5 min ([3]; 100 ml water): 800 mg
- amount remained after 5 min ([3]; 250 ml water): 750 mg
- amount remained after 5 min ([3]; 500 ml water): 690 mg
SMILES: CC(=O)N(CCN(C(C)=O)C(C)=O)C(C)=O [TAED (Commercially available), Tetraacetylethylenediamine]
- solubility ([2]; 20° C.): 200 µg/mL (≈ 876 µM)
- solubility [2]: around 200 mg/L
